In the kinase profiling compilation of Christmann-Franck et al. (2016):

Legend:
Assay in all cases: radiometric filter-binding kinase assay, Kinase HotSpot
Conditions in all cases: compound 0.5 µM; ATP 10 µM
[1] = molecular target: CDK2 CCNA2 (human) (UniProt P24941+P20248)
[2] = molecular target: PRKACA (human) (UniProt P17612)
[3] = molecular target: IKBKB (human) (UniProt O14920)
[4] = molecular target: CHEK1 (human) (UniProt O14757)
[5] = molecular target: MAPK13 (human) (UniProt O15264)
[6] = molecular target: EPHA3 (human) (UniProt P29320)
[7] = molecular target: SGK3 (human) (UniProt Q96BR1)
[8] = molecular target: PLK1 (human) (UniProt P53350)
[9] = molecular target: SIK2 (human) (UniProt Q9H0K1)
[10] = molecular target: PIM2 (human) (UniProt Q9P1W9)
[11] = molecular target: ABL2 (human) (UniProt P42684)
[12] = molecular target: GRK4 (human) (UniProt P32298)
[13] = molecular target: HIPK2 (human) (UniProt Q9H2X6)
[14] = molecular target: BLK (human) (UniProt P51451)
[15] = molecular target: PTK6 (human) (UniProt Q13882)
[16] = molecular target: RIPK2 (human) (UniProt O43353)
[17] = molecular target: TSSK2 (human) (UniProt Q96PF2)
[18] = molecular target: MLTK (human) (UniProt Q9NYL2)
[19] = molecular target: NUAK2 (human) (UniProt Q9H093)
[20] = molecular target: CDK1 CCNB1 (human) (UniProt P06493+P14635)
[21] = molecular target: MKNK2 (human) (UniProt Q9HBH9)
[22] = molecular target: CAMK2B (human) (UniProt Q13554)
[23] = molecular target: CSNK1G1 (human) (UniProt Q9HCP0)
[24] = molecular target: NTRK2 (human) (UniProt Q16620)
[25] = molecular target: FGR (human) (UniProt P09769)
[26] = molecular target: CHUK (human) (UniProt O15111)
[27] = molecular target: CDK4 CCND3 (human) (UniProt P30281+P11802)
[28] = molecular target: MARK1 (human) (UniProt Q9P0L2)
[29] = molecular target: NEK2 (human) (UniProt P51955)
[30] = molecular target: ZAP70 (human) (UniProt P43403)
[31] = molecular target: MAP2K1 (human) (UniProt Q02750)
[32] = molecular target: SRPK1 (human) (UniProt Q96SB4)
[33] = molecular target: LRRK2 (human) (UniProt Q5S007)
[34] = molecular target: ACVR1B (human) (UniProt P36896)
[35] = molecular target: CHEK2 (human) (UniProt O96017)
[36] = molecular target: PLK2 (human) (UniProt Q9NYY3)
[37] = molecular target: CDK9 CCNK (human) (UniProt O75909+P50750)
[38] = molecular target: TYRO3 (human) (UniProt Q06418)
[39] = molecular target: PRKCH (human) (UniProt P24723)
[40] = molecular target: MAP4K4 (human) (UniProt O95819)
[41] = molecular target: FES (human) (UniProt P07332)
[42] = molecular target: RPS6KA6 KD1 KD2 (human) (UniProt Q9UK32)

Chain of ABL2 (human) (P42684 whole entry, looked up): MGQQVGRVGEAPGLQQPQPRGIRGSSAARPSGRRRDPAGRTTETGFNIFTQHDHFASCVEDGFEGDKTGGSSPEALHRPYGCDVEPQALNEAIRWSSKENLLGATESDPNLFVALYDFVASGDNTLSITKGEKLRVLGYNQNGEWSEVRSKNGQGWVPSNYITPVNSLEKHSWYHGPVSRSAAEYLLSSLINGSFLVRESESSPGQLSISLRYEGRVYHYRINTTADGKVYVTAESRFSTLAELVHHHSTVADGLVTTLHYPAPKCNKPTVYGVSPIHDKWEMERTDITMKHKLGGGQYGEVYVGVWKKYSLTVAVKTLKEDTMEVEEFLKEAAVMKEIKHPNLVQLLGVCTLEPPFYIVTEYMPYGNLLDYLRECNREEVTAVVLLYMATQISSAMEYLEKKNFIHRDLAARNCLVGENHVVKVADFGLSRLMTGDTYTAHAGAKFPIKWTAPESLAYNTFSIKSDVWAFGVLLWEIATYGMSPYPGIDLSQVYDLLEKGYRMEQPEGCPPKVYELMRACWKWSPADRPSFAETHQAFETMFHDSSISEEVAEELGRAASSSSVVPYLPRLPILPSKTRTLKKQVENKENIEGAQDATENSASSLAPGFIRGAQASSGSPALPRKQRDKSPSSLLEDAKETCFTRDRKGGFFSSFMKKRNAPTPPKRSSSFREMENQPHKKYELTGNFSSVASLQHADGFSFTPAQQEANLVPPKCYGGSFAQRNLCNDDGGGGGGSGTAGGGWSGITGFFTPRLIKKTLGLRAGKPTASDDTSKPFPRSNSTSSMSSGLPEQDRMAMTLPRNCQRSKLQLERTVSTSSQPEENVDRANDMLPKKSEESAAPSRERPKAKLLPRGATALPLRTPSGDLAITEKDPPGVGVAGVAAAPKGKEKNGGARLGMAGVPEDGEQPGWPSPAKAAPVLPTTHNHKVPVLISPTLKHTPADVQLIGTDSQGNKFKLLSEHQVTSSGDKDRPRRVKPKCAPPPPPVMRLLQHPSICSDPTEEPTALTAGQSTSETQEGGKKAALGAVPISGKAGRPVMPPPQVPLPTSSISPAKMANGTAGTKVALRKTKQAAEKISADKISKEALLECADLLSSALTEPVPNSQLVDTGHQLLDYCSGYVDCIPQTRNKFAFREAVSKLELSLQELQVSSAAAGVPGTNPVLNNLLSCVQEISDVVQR
Chain of PLK1 (human) (P53350 whole entry, looked up): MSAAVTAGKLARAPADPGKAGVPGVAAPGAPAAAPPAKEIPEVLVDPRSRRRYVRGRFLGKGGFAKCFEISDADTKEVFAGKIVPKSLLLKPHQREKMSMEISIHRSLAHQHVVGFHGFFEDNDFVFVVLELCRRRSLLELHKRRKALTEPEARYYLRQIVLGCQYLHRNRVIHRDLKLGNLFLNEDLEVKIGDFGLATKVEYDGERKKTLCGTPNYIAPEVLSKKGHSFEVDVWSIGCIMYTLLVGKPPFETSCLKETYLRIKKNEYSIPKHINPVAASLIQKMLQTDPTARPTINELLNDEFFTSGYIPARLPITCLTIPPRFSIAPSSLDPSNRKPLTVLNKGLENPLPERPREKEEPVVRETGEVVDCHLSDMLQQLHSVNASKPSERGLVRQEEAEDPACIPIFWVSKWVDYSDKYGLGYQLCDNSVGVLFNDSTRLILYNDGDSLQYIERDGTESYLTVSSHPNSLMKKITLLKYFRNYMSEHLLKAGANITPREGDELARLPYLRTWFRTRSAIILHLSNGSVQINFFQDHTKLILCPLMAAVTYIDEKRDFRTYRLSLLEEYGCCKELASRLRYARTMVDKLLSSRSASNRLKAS
Chain of IKBKB (human) (O14920 whole entry, looked up): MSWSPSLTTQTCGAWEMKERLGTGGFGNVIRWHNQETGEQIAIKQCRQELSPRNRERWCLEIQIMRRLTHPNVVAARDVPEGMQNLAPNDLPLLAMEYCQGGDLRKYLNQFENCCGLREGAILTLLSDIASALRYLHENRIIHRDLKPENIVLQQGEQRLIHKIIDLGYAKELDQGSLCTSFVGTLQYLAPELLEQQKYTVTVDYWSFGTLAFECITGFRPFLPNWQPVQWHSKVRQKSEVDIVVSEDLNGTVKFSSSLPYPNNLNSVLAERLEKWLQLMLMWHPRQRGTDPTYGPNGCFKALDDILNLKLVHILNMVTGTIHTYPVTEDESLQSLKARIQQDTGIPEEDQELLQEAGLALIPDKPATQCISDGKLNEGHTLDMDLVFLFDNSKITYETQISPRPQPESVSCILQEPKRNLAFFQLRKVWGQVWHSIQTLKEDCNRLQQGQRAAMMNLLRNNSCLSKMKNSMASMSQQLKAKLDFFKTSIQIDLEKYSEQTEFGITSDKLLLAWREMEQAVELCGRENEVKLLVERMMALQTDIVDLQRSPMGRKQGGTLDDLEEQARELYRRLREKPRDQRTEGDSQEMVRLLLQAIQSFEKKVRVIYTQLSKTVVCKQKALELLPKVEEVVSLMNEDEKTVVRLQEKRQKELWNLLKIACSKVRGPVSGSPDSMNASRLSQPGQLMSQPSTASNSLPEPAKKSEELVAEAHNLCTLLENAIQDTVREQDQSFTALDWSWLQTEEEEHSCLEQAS
Chain of ZAP70 (human) (P43403 whole entry, looked up): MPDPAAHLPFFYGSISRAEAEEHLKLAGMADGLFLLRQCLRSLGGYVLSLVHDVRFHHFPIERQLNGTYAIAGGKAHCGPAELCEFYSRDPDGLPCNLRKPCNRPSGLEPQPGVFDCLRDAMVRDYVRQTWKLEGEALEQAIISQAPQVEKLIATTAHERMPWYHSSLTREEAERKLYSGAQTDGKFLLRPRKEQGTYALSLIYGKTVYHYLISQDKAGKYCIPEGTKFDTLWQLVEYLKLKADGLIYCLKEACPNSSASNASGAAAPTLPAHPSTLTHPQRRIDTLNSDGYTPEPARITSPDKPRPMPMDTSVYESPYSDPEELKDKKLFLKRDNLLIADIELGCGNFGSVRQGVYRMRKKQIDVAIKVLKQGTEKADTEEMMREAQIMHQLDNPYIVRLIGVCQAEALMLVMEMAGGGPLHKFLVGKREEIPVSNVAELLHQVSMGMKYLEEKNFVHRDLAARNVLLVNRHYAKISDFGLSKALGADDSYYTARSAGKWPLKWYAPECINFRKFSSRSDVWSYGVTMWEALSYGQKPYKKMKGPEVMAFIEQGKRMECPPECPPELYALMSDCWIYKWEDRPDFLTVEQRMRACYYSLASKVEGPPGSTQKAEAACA
Chain of MAPK13 (human) (O15264 whole entry, looked up): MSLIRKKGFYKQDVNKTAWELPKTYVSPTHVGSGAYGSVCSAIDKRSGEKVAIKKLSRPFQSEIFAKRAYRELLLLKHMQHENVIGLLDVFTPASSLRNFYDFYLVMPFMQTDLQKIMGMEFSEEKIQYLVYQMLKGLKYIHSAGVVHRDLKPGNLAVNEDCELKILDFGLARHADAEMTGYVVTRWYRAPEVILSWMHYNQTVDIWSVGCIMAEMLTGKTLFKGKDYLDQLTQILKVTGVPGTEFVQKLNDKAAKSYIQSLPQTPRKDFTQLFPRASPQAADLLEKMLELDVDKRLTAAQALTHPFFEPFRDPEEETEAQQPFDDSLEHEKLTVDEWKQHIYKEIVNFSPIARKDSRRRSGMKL
Chain of BLK (human) (P51451 whole entry, looked up): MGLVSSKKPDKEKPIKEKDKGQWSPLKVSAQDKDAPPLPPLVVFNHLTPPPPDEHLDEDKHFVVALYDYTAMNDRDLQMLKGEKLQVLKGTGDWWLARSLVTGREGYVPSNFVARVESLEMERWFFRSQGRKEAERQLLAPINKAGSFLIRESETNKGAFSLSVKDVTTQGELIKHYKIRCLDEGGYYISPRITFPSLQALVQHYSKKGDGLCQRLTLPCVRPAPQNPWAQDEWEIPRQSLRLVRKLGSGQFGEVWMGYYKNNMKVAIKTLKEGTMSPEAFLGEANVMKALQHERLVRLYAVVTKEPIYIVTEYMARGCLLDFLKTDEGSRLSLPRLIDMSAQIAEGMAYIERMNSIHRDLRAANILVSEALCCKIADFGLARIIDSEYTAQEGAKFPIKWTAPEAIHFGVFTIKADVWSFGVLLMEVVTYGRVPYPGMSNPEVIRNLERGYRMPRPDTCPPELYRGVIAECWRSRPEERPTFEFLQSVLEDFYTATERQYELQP
Chain of MARK1 (human) (Q9P0L2 whole entry, looked up): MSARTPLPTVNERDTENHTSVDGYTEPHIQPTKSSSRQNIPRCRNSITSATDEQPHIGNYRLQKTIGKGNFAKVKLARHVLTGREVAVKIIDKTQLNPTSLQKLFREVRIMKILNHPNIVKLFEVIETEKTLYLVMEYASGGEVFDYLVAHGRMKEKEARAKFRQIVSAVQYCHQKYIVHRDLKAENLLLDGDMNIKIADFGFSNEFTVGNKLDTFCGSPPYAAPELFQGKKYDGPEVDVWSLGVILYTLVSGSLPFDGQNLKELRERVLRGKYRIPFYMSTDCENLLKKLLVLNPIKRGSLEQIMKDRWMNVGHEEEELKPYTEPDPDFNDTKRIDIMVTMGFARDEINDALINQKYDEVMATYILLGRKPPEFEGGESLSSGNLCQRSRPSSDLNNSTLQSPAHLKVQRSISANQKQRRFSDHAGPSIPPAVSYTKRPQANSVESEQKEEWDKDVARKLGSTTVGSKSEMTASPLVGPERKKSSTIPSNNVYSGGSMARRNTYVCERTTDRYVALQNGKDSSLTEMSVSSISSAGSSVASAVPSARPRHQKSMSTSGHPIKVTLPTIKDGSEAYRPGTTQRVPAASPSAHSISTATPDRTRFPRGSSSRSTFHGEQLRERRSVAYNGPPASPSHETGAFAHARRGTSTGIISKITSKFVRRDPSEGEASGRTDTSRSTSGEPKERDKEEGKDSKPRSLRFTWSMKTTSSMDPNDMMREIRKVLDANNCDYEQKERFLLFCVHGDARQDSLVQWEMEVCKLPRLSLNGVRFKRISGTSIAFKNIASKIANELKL

## O=c1cc(N2CCOCC2)oc2c(-c3ccccc3)cccc12
[1]
  residual activity: 106%
[2]
  residual activity: 98.3%
[3]
  residual activity: 100%
[4]
  residual activity: 104%
[5]
  residual activity: 93.3%
[6]
  residual activity: 98.7%
[7]
  residual activity: 109%
[8]
  residual activity: 67.1%
[9]
  residual activity: 96.8%
[10]
  residual activity: 106%
[11]
  residual activity: 98.1%
[12]
  residual activity: 96.5%
[13]
  residual activity: 122%
[14]
  residual activity: 120%
[15]
  residual activity: 96%
[16]
  residual activity: 89.9%
[17]
  residual activity: 91.4%
[18]
  residual activity: 94.2%
[19]
  residual activity: 95.1%
[20]
  residual activity: 115%
[21]
  residual activity: 103%
[22]
  residual activity: 110%
[23]
  residual activity: 104%
[24]
  residual activity: 112%
[25]
  residual activity: 97.5%
[26]
  residual activity: 104%
[27]
  residual activity: 96.2%
[28]
  residual activity: 100%
[29]
  residual activity: 89.8%
[30]
  residual activity: 102%
[31]
  residual activity: 88.8%
[32]
  residual activity: 104%
[33]
  residual activity: 96.9%
[34]
  residual activity: 101%
[35]
  residual activity: 93.7%
[36]
  residual activity: 98.9%
[37]
  residual activity: 95.9%
[38]
  residual activity: 107%
[39]
  residual activity: 99%
[40]
  residual activity: 93.5%
[41]
  residual activity: 96.6%

## Nc1ncnc2c1cnn2-c1ccccc1
[1]
  residual activity: 108%
[3]
  residual activity: 97.3%
[4]
  residual activity: 92.5%
[6]
  residual activity: 95%
[7]
  residual activity: 92.3%
[8]
  residual activity: 98.9%
[9]
  residual activity: 99.8%
[10]
  residual activity: 98.2%
[11]
  residual activity: 93%
[12]
  residual activity: 106%
[13]
  residual activity: 103%
[14]
  residual activity: 100%
[15]
  residual activity: 92%
[16]
  residual activity: 93.1%
[17]
  residual activity: 106%
[18]
  residual activity: 92.5%
[19]
  residual activity: 75.2%
[21]
  residual activity: 72.7%
[42]
  residual activity: 94.1%
[22]
  residual activity: 97.8%
[23]
  residual activity: 94.8%
[24]
  residual activity: 88.7%
[25]
  residual activity: 93.8%
[26]
  residual activity: 92.6%
[27]
  residual activity: 94%
[28]
  residual activity: 94.8%
[29]
  residual activity: 98.8%
[30]
  residual activity: 91.5%
[31]
  residual activity: 93.9%
[32]
  residual activity: 98.1%
[33]
  residual activity: 99.3%
[34]
  residual activity: 99.4%
[35]
  residual activity: 95.5%
[36]
  residual activity: 99.2%
[37]
  residual activity: 92.9%
[38]
  residual activity: 102%
[39]
  residual activity: 94.8%
[40]
  residual activity: 94.4%
[41]
  residual activity: 99.7%

## COc1cc2c(Nc3ccc(Br)cc3F)ncnc2cc1OCC1CCN(C)CC1
[1]
  residual activity: 94.6%
[2]
  residual activity: 92.8%
[3]
  residual activity: 87.7%
[4]
  residual activity: 94.4%
[5]
  residual activity: 95.5%
[6]
  residual activity: 57.7%
[7]
  residual activity: 97.9%
[8]
  residual activity: 98.5%
[9]
  residual activity: 17.6%
[10]
  residual activity: 99.4%
[11]
  residual activity: 14%
[12]
  residual activity: 102%
[13]
  residual activity: 99.4%
[14]
  residual activity: 33.8%
[15]
  residual activity: 7.28%
[16]
  residual activity: 23.4%
[17]
  residual activity: 95.9%
[19]
  residual activity: 100%
[20]
  residual activity: 102%
[21]
  residual activity: 86.9%
[42]
  residual activity: 99.3%
[22]
  residual activity: 98.2%
[23]
  residual activity: 100%
[24]
  residual activity: 93.2%
[25]
  residual activity: 30%
[26]
  residual activity: 96.6%
[27]
  residual activity: 101%
[28]
  residual activity: 83.7%
[29]
  residual activity: 103%
[30]
  residual activity: 96.8%
[31]
  residual activity: 105%
[32]
  residual activity: 97.9%
[33]
  residual activity: 113%
[34]
  residual activity: 107%
[35]
  residual activity: 62.1%
[36]
  residual activity: 103%
[38]
  residual activity: 33%
[39]
  residual activity: 117%
[40]
  residual activity: 79.8%
[41]
  residual activity: 104%

## CN[C@@H]1C[C@H]2O[C@@](C)([C@@H]1OC)n1c3ccccc3c3c4c(c5c6ccccc6n2c5c31)C(=O)NC4
[2]
  residual activity: 1.93%
[4]
  residual activity: 1.63%
[11]
  residual activity: 5.25%
[22]
  residual activity: 1.64%
[25]
  residual activity: 0.266%
[31]
  residual activity: 3.83%
[37]
  residual activity: 9.24%

## O=S(=O)(NCCNC/C=C/c1ccc(Br)cc1)c1cccc2cnccc12
[1]
  residual activity: 105%
[2]
  residual activity: 10.5%
[3]
  residual activity: 89.5%
[4]
  residual activity: 90.8%
[5]
  residual activity: 101%
[6]
  residual activity: 109%
[7]
  residual activity: 78.8%
[8]
  residual activity: 98.7%
[9]
  residual activity: 95%
[10]
  residual activity: 104%
[11]
  residual activity: 84.4%
[12]
  residual activity: 95.8%
[13]
  residual activity: 99.2%
[14]
  residual activity: 82.4%
[15]
  residual activity: 94.2%
[16]
  residual activity: 77.8%
[17]
  residual activity: 104%
[18]
  residual activity: 105%
[19]
  residual activity: 78.1%
[20]
  residual activity: 93.3%
[21]
  residual activity: 78.7%
[42]
  residual activity: 71.8%
[22]
  residual activity: 93.3%
[23]
  residual activity: 97.2%
[24]
  residual activity: 95.1%
[25]
  residual activity: 106%
[26]
  residual activity: 104%
[27]
  residual activity: 106%
[28]
  residual activity: 91.2%
[29]
  residual activity: 97.1%
[30]
  residual activity: 97.9%
[31]
  residual activity: 90.5%
[33]
  residual activity: 86.2%
[35]
  residual activity: 82.8%
[37]
  residual activity: 85.5%
[38]
  residual activity: 93.9%
[39]
  residual activity: 53.2%
[40]
  residual activity: 43.8%
[41]
  residual activity: 115%
